From BindingDB's records for doi:10.1021/bi300261p (University of Colorado Boulder, 2012)

target: T1, Pentachlorophenol 4-monooxygenase (Sphingobium chlorophenolicum, UniProt P42535); assay: Spectroscopic Assay
T1 sequence (P42535 whole entry): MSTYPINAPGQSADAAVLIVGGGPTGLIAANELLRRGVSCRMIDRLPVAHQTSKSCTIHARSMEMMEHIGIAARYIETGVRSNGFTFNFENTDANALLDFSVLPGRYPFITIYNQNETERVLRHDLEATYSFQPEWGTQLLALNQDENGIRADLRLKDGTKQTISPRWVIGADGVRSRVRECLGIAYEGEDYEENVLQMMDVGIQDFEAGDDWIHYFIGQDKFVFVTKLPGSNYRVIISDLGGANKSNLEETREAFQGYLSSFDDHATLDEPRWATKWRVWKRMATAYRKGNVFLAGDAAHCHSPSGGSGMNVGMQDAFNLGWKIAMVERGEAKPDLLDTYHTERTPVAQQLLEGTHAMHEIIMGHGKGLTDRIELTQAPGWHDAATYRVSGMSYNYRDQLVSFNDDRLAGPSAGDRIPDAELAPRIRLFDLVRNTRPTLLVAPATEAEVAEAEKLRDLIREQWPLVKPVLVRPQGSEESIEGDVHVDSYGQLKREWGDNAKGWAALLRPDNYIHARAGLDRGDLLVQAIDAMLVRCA
Experimental: Formation of the hydroxylated product and depletion of NADPH were measured following ethyl acetate extraction of the reaction mixture.

Point of comparison: `Oc1c(Cl)cccc1Cl` [2,6-Dichlorophenol], Kd 45.5 µM. Against it:
- Oc1cc(Cl)cc(Cl)c1 [3,5-Dichlorphenol (3,5-DCP)] — higher, > 500 µM
- Oc1ccccc1Cl [2-Chlorophenol (2-CP)] — higher, > 1000 µM
- Oc1c(Cl)c(Cl)c(O)c(Cl)c1Cl [Tetrachlorohydroquinone (TCHQ)] — 11-fold lower, 4.2 µM
- Oc1cc(Cl)c(Cl)c(Cl)c1 [SMR001307309] — higher, > 500 µM
- Oc1c(Cl)c(Cl)c(Cl)c(Cl)c1Cl [Pentachlorophenol (PCP)] — lower, < 0.05 µM
- Oc1c(Cl)c(Cl)cc(Cl)c1Cl [2,3,4,6-Tetrachlorophenol (TCP)] — 4.1-fold lower, 11 µM
- Oc1c(Cl)cc(Cl)cc1Cl [2,4,6-Trichlorophenol (2,4,6-TriCP)] — 6.5-fold lower, 7 µM
